This series in a line: Human HepG2 cell viability assay in 384 well format. Format: toxicity, cell-based. Also on record: dose 125 nL, time 70.5 hour; concentration not given beside the values. Conditions: HepG2 cells, read-out: Inhibition.

Each structure is given as a SMILES string.

For `Cc1nc(CN2C(=O)CCC23CCN(Cc2ccco2)CC3)cs1`, the cytotoxicity at 70.5 h was -1.31%.

Consider `CN1CCC2(CC1)CN(C(=O)c1ccncc1)Cc1ccccc12`, for which the cytotoxicity at 70.5 h is -2.21%.

For the compound `CC(=O)N1CC[C@H]2OCC[C@@H](C(=O)NCc3ccco3)[C@@H]2C1`, the cytotoxicity at 70.5 h was 26.4%.

Consider `CC(C)NC(=O)N1CC[C@@H]2CN(Cc3ccccc3)S(=O)(=O)[C@@H]2CC1`, for which the cytotoxicity at 70.5 h amounted to 18.6%.

Turning to `CC(C)NC(=O)N1CCC2(COCc3cnc(-c4cccnc4)nc32)C1` (stereo not drawn), the cytotoxicity at 70.5 h was -2.99%.

Take `CO[C@@H]1CC[C@H]2[C@H]1OCCN2C(=O)COc1ccc(F)cc1`: the cytotoxicity at 70.5 h was -16.9%.

For `COCC(=O)NCc1cc(=O)n2c(n1)CN(Cc1ccsc1)CCC2`, the cytotoxicity at 70.5 h was -12.5%.

In the case of `CN(C)C(=O)N1C[C@@H]2COC[C@]2(CNS(C)(=O)=O)C1`, the cytotoxicity at 70.5 h is -14.4%.

Consider `CNC(=O)N1CC[C@@H]2CN(Cc3cccnc3)S(=O)(=O)[C@@H]2CC1`, for which the cytotoxicity at 70.5 h was -17.6%.

As for `c1coc(CN2C[C@H](OCC3CCOCC3)[C@H]3COC[C@H]32)c1`, the cytotoxicity at 70.5 h was -15.3%.

Consider `O=C(Nc1cccnc1)[C@H]1C[C@@H]2CN(C(=O)NC3CCCC3)C[C@H]1O2`, for which the cytotoxicity at 70.5 h is -1.2%.

As to `CC(C)NC(=O)N1CCc2nc(C(=O)NCc3ccccc3)sc2CC1`, the cytotoxicity at 70.5 h is -15.4%.

Consider `CS(=O)(=O)N[C@@H]1CCO[C@]2(CCN(C(=O)C3=CCCC3)C2)C1`, for which the cytotoxicity at 70.5 h is -10%.

For `Cn1cc(C2COC3(CCN(C(=O)Cn4cccn4)CC3)C2)cn1` (stereo not drawn), the cytotoxicity at 70.5 h was -2.75%.

In the case of `CS(=O)(=O)NCc1nnc2n1CCN(Cc1cccs1)C2`, the cytotoxicity at 70.5 h is -3.11%.

`CCS(=O)(=O)N1CC[C@H](OC)[C@@H]1Cc1ccncc1`: the cytotoxicity at 70.5 h came out at 3.22%.

As to `Cn1ccnc1CN1CC[C@@H](NS(C)(=O)=O)[C@@H]1Cc1cccnc1`, the cytotoxicity at 70.5 h is -2.76%.

For `Cc1noc([C@H]2C[C@@H]3CCN(C(=O)C4CCOCC4)C[C@H]3O2)n1`, the cytotoxicity at 70.5 h was -1.73%.

For the compound `Cc1ccc(N2CCC3(CC2)CC(OCC(=O)N(C)C)CO3)nn1` (stereo not drawn), the cytotoxicity at 70.5 h was -8.76%.

Take `Cc1nc(CN2C(=O)CC[C@H]3[C@@H]2CCN3C(=O)c2ccsc2)cs1`: the cytotoxicity at 70.5 h was -11.6%.

Turning to `Cn1cc2c(n1)C(COCC1CC1)CN(Cc1ccccn1)C2` (stereo not drawn), the cytotoxicity at 70.5 h amounted to 15.6%.

As to `Cn1ncc2c1C(COCC1CC1)CN(Cc1ccoc1)C2` (stereo not drawn), the cytotoxicity at 70.5 h was -6.88%.

Turning to `Cc1cnc(N2CCn3cc(CNC(=O)CC4CC4)nc3C2)nc1`, the cytotoxicity at 70.5 h came out at 25.9%.

Take `CN(C)C(=O)NC1COC2(CCN(C(=O)Nc3ccccc3)CC2)C1` (stereo not drawn): the cytotoxicity at 70.5 h came to 7.49%.

Consider `Cc1cc(C(=O)N(C)Cc2ccccc2OCC(C)C)cc(=O)[nH]1`, for which the cytotoxicity at 70.5 h is 15.6%.

In the case of `CC(Cn1cccn1)n1cnc2ccc(F)cc2c1=O` (stereo not drawn), the cytotoxicity at 70.5 h is -7.83%.

Regarding `COc1cccc(-c2cc(CN)ccc2F)c1F`, the cytotoxicity at 70.5 h was -8.44%.

With `CSCCC(=O)N1CCC(CCC(=O)NCC2CCCO2)CC1` (stereo not drawn), the cytotoxicity at 70.5 h is -13.2%.

Regarding `CC(C)CN1CCCn2nc(CNC(=O)CN3CCOC3=O)cc2C1`, the cytotoxicity at 70.5 h was -7.41%.

For `COCCN(Cc1cnn(C)c1)C(=O)C1CCN(C2CCCCC2)CC1`, the cytotoxicity at 70.5 h was -10.8%.

In the case of `CCN(Cc1cc(F)c(OC)c(Cl)c1)Cc1nc(COC)no1`, the cytotoxicity at 70.5 h came to 12.1%.

Take `CN(Cc1ccoc1)C(=O)CN1C(=O)OC(C)(C)C1=O`: the cytotoxicity at 70.5 h was -8.72%.

As to `CCS(=O)(=O)NCc1cccnc1N1CCCC(O)C1` (stereo not drawn), the cytotoxicity at 70.5 h was -26.9%.

With `CN1CC2(CCCN(Cc3ccc(Oc4ccccc4)cc3)C2)OC1=O` (stereo not drawn), the cytotoxicity at 70.5 h was found to be 16.8%.

As to `O=c1[nH]c2ccccc2cc1CN(Cc1ccccn1)CC1CCCO1` (stereo not drawn), the cytotoxicity at 70.5 h was -4.2%.

Turning to `CN1C(=O)CC(C(=O)O)C12CCN(c1ccc3cccc(Cl)c3n1)CC2` (stereo not drawn), the cytotoxicity at 70.5 h was -4.5%.

For the compound `Cn1nc(CO)c2c1CCN(c1ncnc3c1CCNC3)C2`, the cytotoxicity at 70.5 h was -6.14%.

Regarding `CN(Cc1cc(-c2cccnc2)no1)C(=O)C1CCCN1S(C)(=O)=O` (stereo not drawn), the cytotoxicity at 70.5 h was -8.25%.

`CCn1ccnc1CN(C)c1cc(N(C)C)ncn1`: the cytotoxicity at 70.5 h was 0.0154%.

As to `O=C(N[C@@H]1c2ccccc2C[C@@H]1O)C1CCN(Cc2ccco2)CC1`, the cytotoxicity at 70.5 h was -0.979%.

Turning to `Fc1ccc(C(CNc2ccncn2)N2CCCC2)cc1` (stereo not drawn), the cytotoxicity at 70.5 h was determined as 12.7%.

Take `Cc1ccccc1NC(=O)CNC(C)COc1ccccc1` (stereo not drawn): the cytotoxicity at 70.5 h is -9.44%.

For the compound `CCOC(=O)CCNC(=O)N1CCCC(CNC(=O)c2ccco2)C1` (stereo not drawn), the cytotoxicity at 70.5 h was 3.18%.

For `Cc1cnc(N2CCCC(c3ccccc3)C2)nc1-c1ccnn1C` (stereo not drawn), the cytotoxicity at 70.5 h is -8.04%.

As for `CC1(c2ccccc2)CCCN(Cc2cncn2C2CC2)C1` (stereo not drawn), the cytotoxicity at 70.5 h is -8.21%.

Regarding `CSC(C)CCN(Cc1ccccn1)Cc1sccc1C` (stereo not drawn), the cytotoxicity at 70.5 h was -4.96%.

As to `CSc1ccccc1CN1C[C@H]2C(=O)N(CC3CC3)C[C@@]2(C(=O)O)C1`, the cytotoxicity at 70.5 h was -0.998%.

On to `CCCN(Cc1nc(-c2ccc(F)c(OC)c2)oc1C)CC1CCCO1` (stereo not drawn), for which the cytotoxicity at 70.5 h is -5.99%.

In the case of `CCNc1ncc(CN2C[C@H](C3CC3)[C@@H](N)C2)cn1`, the cytotoxicity at 70.5 h is -1.95%.

Turning to `O=C(c1ccncc1Cl)N1CCN(Cc2ccco2)C(CCO)C1` (stereo not drawn), the cytotoxicity at 70.5 h worked out at 16.2%.

With `O=C(O)C1(Cc2ccccc2Cl)CCN(c2ncccn2)CC1`, the cytotoxicity at 70.5 h was -10.5%.

Take `Cc1cc(N2CCCC(O)CC2)n2nc(C)c(C)c2n1` (stereo not drawn): the cytotoxicity at 70.5 h was 1.18%.

`COc1ccc(-c2cccc(-c3ccn(CCCN(C)C)n3)c2)nn1`: the cytotoxicity at 70.5 h was -13.7%.

For the compound `COCCN(C)C[C@@H]1CN(C(=O)c2cccc(C#N)c2)C[C@@H]1CO`, the cytotoxicity at 70.5 h is 12.6%.

Take `Cc1nc(N)ncc1C(=O)N1CCCC(CCc2ccc(F)cc2)C1` (stereo not drawn): the cytotoxicity at 70.5 h was -18.8%.

With `CCc1ccc(CN(C)Cc2nc(-c3cnccn3)no2)nc1`, the cytotoxicity at 70.5 h is -13.4%.

On to `Cc1n[nH]c(C)c1CCCNCc1cn(CCC(N)=O)c2ccccc12`, for which the cytotoxicity at 70.5 h is -3.31%.

Regarding `Cc1nnc(SCCCNC(=O)Cc2ccc3c(c2)OCO3)s1`, the cytotoxicity at 70.5 h stood at 11.5%.

`c1ccc2c(c1)CC(N1CCCC(NCc3ccc4nonc4c3)C1)C2` (stereo not drawn): the cytotoxicity at 70.5 h is -17.7%.

In the case of `CC1(C)[C@H]2CC=C(CN3CCCn4nc(C(=O)O)cc4C3)[C@@H]1C2`, the cytotoxicity at 70.5 h was -19.9%.

As to `O=C(CCC(=O)N1CCNC(=O)C1c1cccc(F)c1)NC1CCCC1` (stereo not drawn), the cytotoxicity at 70.5 h was -6.2%.

For the compound `CCCn1ncc(CN(CCN(C)C)Cc2ccsc2)c1C`, the cytotoxicity at 70.5 h turned out to be 31.8%.

`c1cnc(NCc2cncc3c2CCN(Cc2cccs2)C3)nc1`: the cytotoxicity at 70.5 h is -10.8%.

Take `COCC(=O)Nc1ccc2c(c1)C1(CCOCC1)CN2CCF`: the cytotoxicity at 70.5 h is 16.5%.

Turning to `COCC1CN(Cc2ccc(F)cc2)Cc2nn(C)cc21` (stereo not drawn), the cytotoxicity at 70.5 h is -3%.

`CCO[C@H]1CO[C@@]2(CCCN(S(=O)(=O)c3cccnc3)C2)C1`: the cytotoxicity at 70.5 h was -11.8%.

As for `CCN(CC)Cc1cn2c(n1)CN(C(=O)c1cc(C)on1)CC2`, the cytotoxicity at 70.5 h was -13.3%.

For the compound `COCC(=O)N1CC[C@@H]2O[C@H](COCc3ccncc3)CC[C@@H]21`, the cytotoxicity at 70.5 h is -15.9%.

Consider `O=C([C@H]1C[C@H]2OCC[C@H]2N(CCc2ccccc2)C1)N1CCCCO1`, for which the cytotoxicity at 70.5 h was -6.32%.

As to `CCc1ccc(CN2CCC3(CC2)CC(N2CCN(C)CC2)CO3)cc1` (stereo not drawn), the cytotoxicity at 70.5 h worked out at 7.28%.

For `Cn1cc(C[C@H]2[C@H](O)CCN2CC2CC2)cn1`, the cytotoxicity at 70.5 h stood at 6.74%.

`CC(C)Nc1ncnc2c1CCN(C(=O)c1ccncc1F)CC2`: the cytotoxicity at 70.5 h is 5.41%.

For the compound `CN(C)C(=O)N1CCC2(CCCN(Cc3cnn(C)c3)C2)C1` (stereo not drawn), the cytotoxicity at 70.5 h turned out to be 6.69%.

`O=C(c1ccc[nH]1)N1CCc2c(COCC3CC3)cncc2C1`: the cytotoxicity at 70.5 h is -4.79%.

For the compound `Cc1nc(CN2C[C@@H]3CN(C(=O)C4CC4)C[C@@H]3C2=O)cs1`, the cytotoxicity at 70.5 h came to 27.3%.

On to `Cc1nc(CN2C[C@@H]3CN(C(=O)c4cccn4C)C[C@@H]3C2=O)cs1`, for which the cytotoxicity at 70.5 h was -3.56%.

In the case of `O=C1CO[C@@H]2CN(CC3CCOCC3)C[C@H]2N1CC1CC1`, the cytotoxicity at 70.5 h is -2.81%.

On to `CN(C)C(=O)N1CCN(Cc2cnn(C)c2)CC2(CNC(=O)C2)C1` (stereo not drawn), for which the cytotoxicity at 70.5 h was -7.42%.

For `Cc1nc(CN2CCc3ncnc(-c4ccc(F)cc4)c3CC2)cs1`, the cytotoxicity at 70.5 h is -4.74%.

For the compound `Cc1nc(CN2C[C@@H]3CN(C(=O)c4ccnnc4)C[C@@H]3C2=O)cs1`, the cytotoxicity at 70.5 h was -3.08%.

On to `O=C1CC(c2ccncc2)C2(CCN(C(=O)c3ccc[nH]3)CC2)N1` (stereo not drawn), for which the cytotoxicity at 70.5 h came out at 23.7%.

Regarding `CN(C)CCNC(=O)c1cc(-c2cnc(N3CCCC3)nc2)cn1C`, the cytotoxicity at 70.5 h turned out to be 21.5%.

Consider `Cc1cccc(C(=O)N2C[C@@H]3CCN(c4cccnc4)C[C@@H]3C2)c1`, for which the cytotoxicity at 70.5 h was 31.2%.

In the case of `Cc1cccc(N2CC[C@@H]3CN(C(=O)c4ccco4)CCO[C@@H]3C2)n1`, the cytotoxicity at 70.5 h was -13.8%.

With `COCCN1CC[C@@H]2CN(Cc3nccn3C)C[C@@H]2C1`, the cytotoxicity at 70.5 h amounted to 8.43%.

Take `O=C(Cc1ccccn1)N1CCN2C[C@H](Oc3cccc(F)c3)C[C@H]2C1`: the cytotoxicity at 70.5 h amounted to 33.7%.

With `CNC(=O)[C@H]1CO[C@H]2CCN(Cc3ccc4ccccc4n3)C[C@H]2C1`, the cytotoxicity at 70.5 h is -0.28%.

Regarding `O=C(c1ccc(F)cc1)N1CCN2C[C@H](OCc3ccccn3)C[C@H]2C1`, the cytotoxicity at 70.5 h is -6.75%.

For the compound `Fc1ccc(CNCC2OCCc3cn(CC4CC4)nc32)cc1` (stereo not drawn), the cytotoxicity at 70.5 h was 5.14%.

As to `CCN1C[C@H]2[C@@H](C1)N(S(=O)(=O)c1cccnc1)CC[C@H]2OC`, the cytotoxicity at 70.5 h came out at 45.6%.

Turning to `FC1(F)CCN(Cc2cccnc2)CC12CCN(c1ccccn1)C2` (stereo not drawn), the cytotoxicity at 70.5 h was -15.1%.

In the case of `CNC(=O)C1Cn2ccnc2C2(CCN(Cc3cccnc3)CC2)O1` (stereo not drawn), the cytotoxicity at 70.5 h was 2.48%.

With `CN1CCN(Cc2cnc3n2CCN(Cc2cccs2)C3)CC1`, the cytotoxicity at 70.5 h was determined as 3.18%.

Values taken from ChEMBL document CHEMBL3507680, “University of Dundee, Gates Library screen for HepG2 cell viability”.
